Source: ChEMBL document CHEMBL4433241, “Potential of ROCK Inhibitors as Treatment for Cardiovascular Diseases, Cancer, and More” (ACS Med Chem Lett, 2019)

Target: Rho-associated protein kinase 2 (Homo sapiens, UniProt O75116)
Assay: Inhibition of ROCK2 (unknown origin) using FITC-AHA-AKRRRLSSLRA-OH substrate and ATP

Sequence of Rho-associated protein kinase 2 (O75116 whole entry): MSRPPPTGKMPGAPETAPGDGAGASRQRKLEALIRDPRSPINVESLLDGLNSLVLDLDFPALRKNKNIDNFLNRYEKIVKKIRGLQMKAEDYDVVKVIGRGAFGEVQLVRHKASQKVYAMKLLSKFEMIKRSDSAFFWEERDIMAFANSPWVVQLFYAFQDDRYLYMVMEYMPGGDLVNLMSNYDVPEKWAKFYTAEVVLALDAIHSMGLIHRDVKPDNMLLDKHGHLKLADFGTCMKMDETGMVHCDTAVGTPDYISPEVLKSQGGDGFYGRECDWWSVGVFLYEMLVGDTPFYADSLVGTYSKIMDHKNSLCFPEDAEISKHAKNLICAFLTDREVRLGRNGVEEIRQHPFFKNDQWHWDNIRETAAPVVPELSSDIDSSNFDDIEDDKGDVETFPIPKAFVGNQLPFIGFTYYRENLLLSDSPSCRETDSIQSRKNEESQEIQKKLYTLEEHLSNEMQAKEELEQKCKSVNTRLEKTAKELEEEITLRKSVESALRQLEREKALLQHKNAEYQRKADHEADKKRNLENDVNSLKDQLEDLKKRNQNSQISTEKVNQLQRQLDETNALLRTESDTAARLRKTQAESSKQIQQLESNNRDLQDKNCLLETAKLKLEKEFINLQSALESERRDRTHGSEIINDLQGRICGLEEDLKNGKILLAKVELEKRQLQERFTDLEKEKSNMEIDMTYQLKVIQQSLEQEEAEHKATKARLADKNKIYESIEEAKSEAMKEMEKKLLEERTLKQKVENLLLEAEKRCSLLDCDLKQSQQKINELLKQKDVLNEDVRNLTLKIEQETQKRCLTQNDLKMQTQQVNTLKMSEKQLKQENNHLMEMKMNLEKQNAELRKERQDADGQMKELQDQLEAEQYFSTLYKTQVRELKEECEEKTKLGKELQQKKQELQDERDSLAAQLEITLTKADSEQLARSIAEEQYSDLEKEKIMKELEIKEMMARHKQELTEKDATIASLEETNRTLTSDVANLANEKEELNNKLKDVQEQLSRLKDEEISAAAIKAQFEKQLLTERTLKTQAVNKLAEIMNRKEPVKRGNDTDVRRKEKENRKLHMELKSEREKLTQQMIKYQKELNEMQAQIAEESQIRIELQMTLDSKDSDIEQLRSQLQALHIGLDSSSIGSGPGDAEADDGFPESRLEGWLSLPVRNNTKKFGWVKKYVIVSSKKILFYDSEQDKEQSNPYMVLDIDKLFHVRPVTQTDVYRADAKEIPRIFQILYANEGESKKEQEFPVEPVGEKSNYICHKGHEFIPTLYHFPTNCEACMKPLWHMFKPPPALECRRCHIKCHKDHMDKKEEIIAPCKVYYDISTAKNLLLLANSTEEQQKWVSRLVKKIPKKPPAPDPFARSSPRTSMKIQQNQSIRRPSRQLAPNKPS

SMILES	IC50
NC(=O)c1cccnc1OC1CC2(CC(Nc3nc4c(Cl)cccc4s3)C2)C1 (stereo not given)	76 nM
N#Cc1cnc(NC2CC3(C2)CC(Oc2ncccc2C(N)=O)C3)nc1 (stereo not given)	1510 nM
COc1cnc(NC2CC3(C2)CC(Oc2ncccc2C(N)=O)C3)c2cc(Cl)ccc12 (stereo not given)	15 nM

Further lines, results first:

IC50	SMILES
17 nM	COc1ccc2c(NC3CC4(C3)CC(Oc3ncccc3C(N)=O)C4)nccc2c1 (stereo not given)
62 nM	COc1ccc2ncnc(NC3CC4(C3)CC(Oc3ncccc3C(N)=O)C4)c2c1 (stereo not given)
